Assay results as given in PubChem BioAssay (NCI).
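96-well plates; 48 h exposure; 5 concentrations. Endpoints by linear interpolation between flanking doses. Not reached: highest tested concentration assigned. GI50 is the concentration that inhibits growth by half. TGI marks complete inhibition of growth.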

How the values were obtained:
Assay in all cases: NCI-60 cell line screen, 48 h
M14 melanoma = test system: M14 melanoma
HCT-116 colon = test system: HCT-116 colon
SF-539 CNS = test system: SF-539 CNS
UACC-257 melanoma = test system: UACC-257 melanoma
IGROV1 ovarian = test system: IGROV1 ovarian
SN12C renal = test system: SN12C renal
MDA-MB-231 breast = test system: MDA-MB-231 breast
PC-3 prostate = test system: PC-3 prostate
SF-268 CNS = test system: SF-268 CNS
HL-60(TB) leukemia = test system: HL-60(TB) leukemia
DU-145 prostate = test system: DU-145 prostate
BT-549 breast = test system: BT-549 breast
LOX IMVI melanoma = test system: LOX IMVI melanoma
SR leukemia = test system: SR leukemia
NCI-H23 lung = test system: NCI-H23 lung
SNB-75 CNS = test system: SNB-75 CNS
K-562 leukemia = test system: K-562 leukemia
NCI/ADR-RES ovarian = test system: NCI/ADR-RES ovarian
UACC-62 melanoma = test system: UACC-62 melanoma
SW-620 colon = test system: SW-620 colon
RPMI-8226 leukemia = test system: RPMI-8226 leukemia
NCI-H226 lung = test system: NCI-H226 lung
SK-MEL-5 melanoma = test system: SK-MEL-5 melanoma
SK-MEL-28 melanoma = test system: SK-MEL-28 melanoma
KM12 colon = test system: KM12 colon
COLO 205 colon = test system: COLO 205 colon
HT29 colon = test system: HT29 colon
CCRF-CEM leukemia = test system: CCRF-CEM leukemia
OVCAR-4 ovarian = test system: OVCAR-4 ovarian
OVCAR-5 ovarian = test system: OVCAR-5 ovarian
OVCAR-3 ovarian = test system: OVCAR-3 ovarian
SK-OV-3 ovarian = test system: SK-OV-3 ovarian
ACHN renal = test system: ACHN renal
MCF7 breast = test system: MCF7 breast
UO-31 renal = test system: UO-31 renal
HS 578T breast = test system: HS 578T breast
OVCAR-8 ovarian = test system: OVCAR-8 ovarian
786-0 renal = test system: 786-0 renal
RXF 393 renal = test system: RXF 393 renal
MALME-3M melanoma = test system: MALME-3M melanoma
NCI-H460 lung = test system: NCI-H460 lung
SNB-19 CNS = test system: SNB-19 CNS
EKVX NSCLC = test system: EKVX NSCLC
SK-MEL-2 melanoma = test system: SK-MEL-2 melanoma
NCI-H522 lung = test system: NCI-H522 lung
T-47D breast = test system: T-47D breast
HOP-62 NSCLC = test system: HOP-62 NSCLC
A549 NSCLC = test system: A549 NSCLC
MOLT-4 leukemia = test system: MOLT-4 leukemia
U251 CNS = test system: U251 CNS
HCT-15 colon = test system: HCT-15 colon
TK-10 renal = test system: TK-10 renal
SF-295 CNS = test system: SF-295 CNS
MDA-MB-435 = test system: MDA-MB-435
HCC-2998 colon = test system: HCC-2998 colon
CAKI-1 renal = test system: CAKI-1 renal

CCN(CC)c1ccc(/C=N/NC(=O)CSc2nc3ccccc3c(=O)n2Cc2ccc(S(N)(=O)=O)cc2)c(O)c1
GI50 (M14 melanoma): 452 nM
TGI (M14 melanoma): 10900 nM
GI50 (HCT-116 colon): 363 nM
TGI (HCT-116 colon): > 100000 nM
GI50 (SF-539 CNS): 1260 nM
TGI (SF-539 CNS): > 100000 nM
GI50 (UACC-257 melanoma): 3030 nM
TGI (UACC-257 melanoma): > 100000 nM
GI50 (IGROV1 ovarian): 785 nM
TGI (IGROV1 ovarian): > 100000 nM
GI50 (SN12C renal): 1930 nM
TGI (SN12C renal): > 100000 nM
GI50 (MDA-MB-231 breast): 643 nM
TGI (MDA-MB-231 breast): > 100000 nM
GI50 (PC-3 prostate): 829 nM
TGI (PC-3 prostate): > 100000 nM
GI50 (SF-268 CNS): 766 nM
TGI (SF-268 CNS): > 100000 nM
GI50 (HL-60(TB) leukemia): 412 nM
TGI (HL-60(TB) leukemia): 5380 nM
GI50 (DU-145 prostate): 944 nM
TGI (DU-145 prostate): > 100000 nM
GI50 (BT-549 breast): 2680 nM
TGI (BT-549 breast): > 100000 nM
GI50 (LOX IMVI melanoma): 387 nM
TGI (LOX IMVI melanoma): 10500 nM
GI50 (SR leukemia): 212 nM
TGI (SR leukemia): > 100000 nM
GI50 (NCI-H23 lung): 1960 nM
TGI (NCI-H23 lung): > 100000 nM
GI50 (SNB-75 CNS): 2860 nM
TGI (SNB-75 CNS): > 100000 nM
GI50 (K-562 leukemia): 592 nM
TGI (K-562 leukemia): > 100000 nM
GI50 (NCI/ADR-RES ovarian): > 100000 nM
TGI (NCI/ADR-RES ovarian): > 100000 nM
GI50 (UACC-62 melanoma): 886 nM
TGI (UACC-62 melanoma): 5440 nM
GI50 (SW-620 colon): 949 nM
TGI (SW-620 colon): > 100000 nM
GI50 (RPMI-8226 leukemia): 521 nM
TGI (RPMI-8226 leukemia): 4850 nM
GI50 (NCI-H226 lung): 895 nM
TGI (NCI-H226 lung): > 100000 nM
GI50 (SK-MEL-5 melanoma): 1570 nM
TGI (SK-MEL-5 melanoma): 4970 nM
GI50 (SK-MEL-28 melanoma): 1620 nM
TGI (SK-MEL-28 melanoma): > 100000 nM
GI50 (KM12 colon): 569 nM
TGI (KM12 colon): > 100000 nM
GI50 (COLO 205 colon): 1510 nM
TGI (COLO 205 colon): > 100000 nM
GI50 (HT29 colon): 3010 nM
TGI (HT29 colon): > 100000 nM
GI50 (CCRF-CEM leukemia): 196 nM
TGI (CCRF-CEM leukemia): > 100000 nM
GI50 (OVCAR-4 ovarian): 311 nM
TGI (OVCAR-4 ovarian): > 100000 nM
GI50 (OVCAR-5 ovarian): 2090 nM
TGI (OVCAR-5 ovarian): > 100000 nM
GI50 (OVCAR-3 ovarian): 287 nM
TGI (OVCAR-3 ovarian): > 100000 nM
GI50 (SK-OV-3 ovarian): 1320 nM
TGI (SK-OV-3 ovarian): > 100000 nM
GI50 (ACHN renal): 1580 nM
TGI (ACHN renal): > 100000 nM
GI50 (MCF7 breast): 457 nM
TGI (MCF7 breast): > 100000 nM
GI50 (UO-31 renal): 2890 nM
TGI (UO-31 renal): > 100000 nM
GI50 (HS 578T breast): 2110 nM
TGI (HS 578T breast): > 100000 nM
GI50 (OVCAR-8 ovarian): 932 nM
TGI (OVCAR-8 ovarian): > 100000 nM
GI50 (786-0 renal): 1840 nM
TGI (786-0 renal): > 100000 nM
GI50 (RXF 393 renal): 2500 nM
TGI (RXF 393 renal): > 100000 nM
GI50 (MALME-3M melanoma): 1090 nM
TGI (MALME-3M melanoma): > 100000 nM
GI50 (NCI-H460 lung): 425 nM
TGI (NCI-H460 lung): > 100000 nM
GI50 (SNB-19 CNS): 2100 nM
TGI (SNB-19 CNS): > 100000 nM
GI50 (EKVX NSCLC): 650 nM
TGI (EKVX NSCLC): > 100000 nM
GI50 (SK-MEL-2 melanoma): 2410 nM
TGI (SK-MEL-2 melanoma): > 100000 nM
GI50 (NCI-H522 lung): 2400 nM
TGI (NCI-H522 lung): > 100000 nM
GI50 (T-47D breast): 925 nM
TGI (T-47D breast): > 100000 nM
GI50 (HOP-62 NSCLC): 961 nM
TGI (HOP-62 NSCLC): > 100000 nM
GI50 (A549 NSCLC): 1570 nM
TGI (A549 NSCLC): > 100000 nM
GI50 (MOLT-4 leukemia): 372 nM
TGI (MOLT-4 leukemia): > 100000 nM
GI50 (U251 CNS): 510 nM
TGI (U251 CNS): > 100000 nM
GI50 (HCT-15 colon): 3620 nM
TGI (HCT-15 colon): > 100000 nM
GI50 (TK-10 renal): 1660 nM
TGI (TK-10 renal): > 100000 nM
GI50 (SF-295 CNS): 1470 nM
TGI (SF-295 CNS): > 100000 nM
GI50 (MDA-MB-435): 2070 nM
TGI (MDA-MB-435): > 100000 nM
GI50 (HCC-2998 colon): 882 nM
TGI (HCC-2998 colon): > 100000 nM
GI50 (CAKI-1 renal): 1020 nM
TGI (CAKI-1 renal): > 100000 nM
